According to PMC11304990, “Identification of mitochondrial ATP synthase as the cellular target of Ru-polypyridyl-β-carboline complexes by affinity-based protein profiling” (National Science Review, 2024):

What was measured:
[1] = test system: human lung fibroblast-like (HLF) cells; test: MTT antiproliferative assay, HLF; assay type: cell-based; details: 72 h
From the text: (§1) Ru3–Ru9 also show a certain selectivity for cancer cells over normal cells, and Ru2, Ru3, Ru5 and Ru9 show higher selectivity index (SI) values than the other complexes.
(§2) PA-BPP was then used to confirm the molecular targets of Ru5 by modifying it with a ‘minimalist’ biorthogonal handle-containing photo-cross-linker. Through our structure–activity relationship analysis and comparison with other ruthenium complexes utilizing phen as the auxiliary ligands with similar coordination structures (using cisplatin as a control), we propose that the β-carboline ligands play an important role in antiproliferative activity. To maintain the binding characteristics of the β-carboline moiety with the targeted biomolecules, we linked the photo-cross-linker to one of the auxiliary ligands of Ru5.

[2] = test system: prostate cancer (PC3); test: MTT antiproliferative assay, PC3; assay type: cell-based, human; details: 72 h
From the text: as §1, §2

[3] = Aqueous solubility by concentration-absorbance linearity; assay type: physicochemical; details: PBS with 1% DMSO
From the text: Subsequently, the lipophilicity and aqueous solubility of Ru1–Ru9 were investigated.

[4] = test system: A549 cells; test: Wound healing and transwell migration assays; assay type: cell-based, human; details: 5 μM
Procedure: Figure 4. Ru5 induces mitophagy and ferroptosis and inhibits EMT in vitro. (A) TEM images of A549 cells treated with vehicle (1% DMSO) or Ru5 (10 μM, 12 h). Red rectangles represent the region enlarged. Scale bar: 5 μm and 500 nm (enlarged). (B) The morphological examination of mitochondria in A549 cells treated with Ru5 (10 μM) for the indicated time intervals. MTG: λex = 514 nm; λem = 540 ± 20 nm. LTDR: λex = 633 nm; λem = 700 ± 20 nm. Scale bar: 20 μm. (C) Western blotting analysis showing the impact of Ru5 (24 h) on the expression of proteins related to mitochondrial dysfunction and ferroptosis. (D and E) The impact of different inhibitors on antiproliferative activity of Ru5 (24 h). (F) RT-qPCR analysis of EMT-related genes in A549 cells after Ru5 (10 μM, 12 h) treatment. (G) The impact of Ru5 (5 μM) on the migration of A549 cells was measured by a wound healing assay. Scale bar: 100 μm. (H) Quantitative analysis of the impact of Ru5 on wound healing. (I) Selective images of the impact of Ru5 (5 μM, 48 h) on the migration of A549 cells detected by transwell assay. Scale bar: 100 μm. […] Firstly, real-time quantitative polymerase chain reaction (RT-qPCR) experiments (Fig. 4F) confirm that Ru5 can down-regulate genes including CDH1 (cadherin 1), FN1 (fibronectin 1) and MMP2 (matrix metallopeptidase 2).

[5] = test system: malignant glioma (U87); test: MTT antiproliferative assay, U87; assay type: cell-based, human; details: 72 h
From the text: as §1, §2

[6] = test system: A549 cells; test: Anticancer activity in wild type vs ATPase siRNA knockdown cells; assay type: cell-based, human; details: compared to wild-type cells
Procedure: (§3) Figure 1. Validation of ATP5F1 as the molecular target of Ru5. (A) Proteins pulled down by streptavidin from A549 cells treated with Ru5a followed by PAL. The cells were treated with Ru5a (50 μM) for 12 h and irradiated with UV light for 20 min. (B) The top five peptides enriched by Ru5a-mediated PAL were identified with the assistance of SILAC-based chemoproteomic studies. H1F0: H1 histone family member 0; HIST4H4: histone cluster 4 H4; HIST3H2BB: histone cluster 3 H2B family member b; ATP5F1E: ATP synthase F1 subunit epsilon; HIST1H2AJ: histone cluster 1 H2A family member J. (C) Pull-down western blotting analysis of ATPase in A549 cells treated with Ru5a. (D) Cellular Ru content in cells treated with Ru5/Ru5a (20 μM, 12 h) measured by ICP-MS. (E) Impact of Ru5/Ru5a (10 μM) on the thermal stability of ATP5F1 measured by CETSA. (F) Impact on the anticancer activities of Ru5/Ru5a against wild type and ATPase knocking down (by siRNA) A549 cells. The relative cellular viability was calculated using the cells without drug treatment in each group as the control group. (G) Inhibition of Ru5/Ru5a on the enzymatic activity of ATPase. (-)-blebbistatin was used as the positive control. (H) Molecular docking of Ru5 with ATPase (PDB: 3ZIA). The red dashes indicate the hydrogen bonds formed between Ru5 and the amino acid residues (SER38 and GLN39). […]

[7] = target: ATPase (mitochondrial ATP synthase); test: Inhibition of the enzymatic activity of ATPase in vitro; assay type: biochemical; details: read-out: Inhibition constant (Ki)
Procedure: as §3, with “GLN39). The yellow dashes indicate the hydrophobic interaction between Ru5 and the amino acid residues (ASN15 and GLN19). Data are presented as means ± SD from three independent experiments. TEXT PRINTED IN THE PICTURE: (B) Ru5a: Log2 (fold change) (Ru5a/DMSO): 1.43 (Protein name: H1F0); Log2 (fold change) (Ru5a/DMSO): 1.23 (Protein name: HIST4H4); Log2 (fold change) (Ru5a/DMSO): 1.22 (Protein name: HIST3H2BB); Log2 (fold change) (Ru5a/DMSO): 1.21 (Protein name: ATP5F1E); Log2 (fold change) (Ru5a/DMSO): 1.12 (Protein name: HIST1H2AJ) DOUBTS OF THE COPYIST ABOUT THIS PICTURE: Panel B: the table rows are proteins enriched by Ru5a, not separate substances.” for “GLN39).”

[8] = test system: cisplatin-resistant A549R; test: MTT antiproliferative assay, A549R; assay type: cell-based, human; details: 72 h
From the text: as §1, §2

[9] = test system: mitochondria; test: Subcellular Ru content by ICP-MS; assay type: cell-based; details: 20 μM, 12 h
Procedure: as §3

[10] = test system: triple negative breast cancer (MDA-MB-231); test: MTT antiproliferative assay, MDA-MB-231; assay type: cell-based, human; details: 72 h
From the text: as §1, §2

[11] = test system: ATP5F1; test: Cellular thermal shift assay (CETSA); assay type: cell-based; details: 10 μM
Procedure: as §3

IC50 [2]: 2.7 ± 0.4 µM
Linear relationship between absorbance and concentration up to [3]: at least 100 μM
IC50 [5]: 14.7 ± 0.7 µM
Ki [7]: 6.2 ± 1.4 µM
IC50 [8]: 3.3 ± 0.7 µM
Subcellular location (cellular Ru content) [9]: mainly located in mitochondria
IC50 [10]: 7.7 ± 0.2 µM
SMILES: F[P-](F)(F)(F)(F)F.F[P-](F)(F)(F)(F)F.[Ru+2].c1ccc2c(c1)[nH]c1c(-c3ncc[nH]3)nccc12.c1cnc2c(c1)ccc1cccnc12.c1cnc2c(c1)ccc1cccnc12 [Ru5]
IC50 [1]: 33.9 ± 0.2 µM
Migration rates of A549 cells [4]: markedly decrease
Effect of siRNA-mediated knockdown of ATPase on anticancer effects [6]: alleviates
Thermal stability of ATP5F1 [11]: increased
